± gives the expanded uncertainty stated by the source.
Experiment: mn = molality of the nth substance listed, in mol/kg
Conditions: 298.15 K, 101 kPa, Liquid, Vibrating tube method

Structure (SMILES)	mass density (m1 = 0.0499) [kg/m3]	mass density (m1 = 0.1004) [kg/m3]	mass density (m1 = 0.1501) [kg/m3]	mass density (m1 = 0.2) [kg/m3]	mass density (m1 = 0.2492) [kg/m3]	mass density (m1 = 0.2995) [kg/m3]	mass density (m1 = 0.3512) [kg/m3]	mass density (m1 = 0.3991) [kg/m3]	mass density (m1 = 0.4485) [kg/m3]	mass density (m1 = 0.5013) [kg/m3]	mass density (m1 = 0.5509) [kg/m3]	mass density (m1 = 0.5987) [kg/m3]	mass density (m1 = 0.1998) [kg/m3]	mass density (m1 = 0.35) [kg/m3]	mass density (m1 = 0.4985) [kg/m3]	mass density (m1 = 0.6496) [kg/m3]	mass density (m1 = 0.7999) [kg/m3]	mass density (m1 = 0.95) [kg/m3]
O=C(O)CNCC(=O)O [N-(carboxymethyl)glycine] + O	1000.08 ± 0.064	1002.85 ± 0.065	1005.55 ± 0.066	1008.22 ± 0.067	1010.83 ± 0.068	1013.46 ± 0.069	1016.13 ± 0.07	1018.57 ± 0.071	1021.04 ± 0.072	1023.68 ± 0.074	1026.15 ± 0.075	1028.49 ± 0.076	–	–	–	–	–	–
OC[C@@H](O)[C@H](O)[C@@H](O)CO [xylitol] + O	–	–	–	–	–	–	–	–	–	–	–	–	1006.8 ± 0.067	1013.81 ± 0.07	1020.47 ± 0.073	1027.38 ± 0.077	1033.72 ± 0.08	1039.84 ± 0.084

Reference: the NIST ThermoML archive (doi:10.1016/j.jct.2011.02.005)
